The molecules below were run on bronchoconstriction induced by PAF (assay: Effect on bronchoconstriction induced by platelet activating factor (PAF) in guinea pigs (Konzett-Rossler method)). Conditions: Cavia porcellus, po, 30 mg/kg orally 1 hour before PAF (1 μg/kg i.v.), suspended in 5% gum arabic, recorded for 15 minutes, male Hartley guinea pigs.
Assay type: in vivo, guinea pig (male Hartley)
Description: Effect On bronchoconstriction Induced By Platelet Activating Factor (PAF) In Guinea Pigs
Male Hartley guinea pigs (body weight 500 g) were used. The bronchoconstriction reaction in the guinea pig which has intravenously received PAF (1 μg/Kg) was measured by the Konzett-Rossler method. The trachea of the guinea pig with its back fixed was incised under anesthesia condition with urethane (intraperitoneal injection, 1.50 g/kg) and connected with an artificial respirator via a cannula. The branch of the tracheal cannula was connected with a transducer (7020 type, Ugobasile). Air was sent to the trachea at the volume of 3-7 ml/stroke, at the rate of 70 strokes/min. at load pressure of 10 cm H2 O to lung and overflowed air volume was recorded with Rectegraph (Recte-Hori-8s, Sanei Sokuki) via the transducer. After the guinea pig was treated with gallamine (1 mg/kg, i.v.), PAF (1 μg/kg) dissolved in a physiological saline solution was administered to the guinea pig via a jugular venous cannula and the bronchoconstriction reaction induced thereby was recorded for 15 minutes. The drug (30 mg/kg) suspended in a 5% gum arabic solution was administered orally 1 hour before the injection of PAF.
Work on `CN(C)S(=O)(=O)CCCSc1ccc2nccn2n1` [Example 9] yielded an inhibition in vivo at 30 mg/kg of 52%.
`C[C@H](COc1ccc2nccn2n1)CS(N)(=O)=O` [Example 40, (+)-6-[(2-(R)-methyl-3-sulfamoylpropyl)oxy]imidazo[1,2-b]pyridazine] gave an inhibition in vivo at 30 mg/kg of 53%.
`NS(=O)(=O)CCSc1ccc2nccn2n1` [Example 26] showed an inhibition in vivo at 30 mg/kg of 42%.
In the case of `NS(=O)(=O)CCCCSc1ccc2nccn2n1` [Example 30], the inhibition in vivo at 30 mg/kg is reported as 73%.
Molecule `NS(=O)(=O)CCCSc1ccc2ncc(Cl)n2n1` [Example 43, 3-chloro-6[(3-sulfamoylpropyl)thio]imidazo[1,2-b]pyridazine] has an inhibition in vivo at 30 mg/kg of 54%.
With `CCC(CSc1ccc2nccn2n1)CS(N)(=O)=O` (stereo not drawn) [Example 32] the inhibition in vivo at 30 mg/kg was 80%.
`Cn1cccc1CCNS(=O)(=O)CCCSc1ccc2nccn2n1` [Example 20] showed an inhibition in vivo at 30 mg/kg of 41%.
Work on `NS(=O)(=O)CC(CSc1ccc2nccn2n1)c1ccccc1` (stereo not drawn) [Example 33] yielded an inhibition in vivo at 30 mg/kg of 52%.
Molecule `O=S(=O)(CCSc1ccc2nccn2n1)NC1CC1` [Example 25, 6-[2-(N-cyclopropylsulfamoyl)ethylthio] imidazo[1,2-b]pyridazine] has an inhibition in vivo at 30 mg/kg of 47%.
`CC(CSc1ccc2nccn2n1)CS(N)(=O)=O` (stereo not drawn) [Example 31] gave an inhibition in vivo at 30 mg/kg of 74%.
`C[C@@H](CSc1ccc2nccn2n1)CS(N)(=O)=O` [Example 35, (+)-6-[(2-(S)-methyl-3-sulfamoylpropyl)thio]imidazo[1,2-b]pyridazine] was tested, and the inhibition in vivo at 30 mg/kg was 79%.
Molecule `CC(C)(COc1ccc2nccn2n1)CS(N)(=O)=O` [Example 39, 6-[(2,2-dimethyl-3-sulfamoylpropyl)oxy]imidazo[1,2-b]pyridazine] has an inhibition in vivo at 30 mg/kg of 72%.
`NS(=O)(=O)CCCCCSc1ccc2nccn2n1` [Example 29, 6-(5-sulfamoylpentylthio)imidazo[1,2-b]pyridazine] showed an inhibition in vivo at 30 mg/kg of 51%.
Work on `NS(=O)(=O)CCC(Sc1ccc2nccn2n1)c1ccccc1` (stereo not drawn) [Example 34] yielded an inhibition in vivo at 30 mg/kg of 38%.
Molecule `O=S(=O)(CCCSc1ccc2nccn2n1)NCCc1cccnc1` [Example 19] has an inhibition in vivo at 30 mg/kg of 41%.
In the case of `CC(C)(COc1ccc2ncc(Cl)n2n1)CS(N)(=O)=O` [Example 45, 3-chloro-6-[(2,2-dimethyl-3-sulfamoylpropyl)oxy]imidazo[1,2-b]pyridazine], the inhibition in vivo at 30 mg/kg is reported as 50%.
Work on `CCC(CC)(COc1ccc2nccn2n1)CS(N)(=O)=O` [Example 47, 6-[(2,2-diethyl-3-sulfamoylpropyl)oxy]imidazo[1,2-b]pyridazine] yielded an inhibition in vivo at 30 mg/kg of 90%.
`CC(C)(CSc1ccc2nccn2n1)CS(N)(=O)=O` [Example 37, 6-[(3-sulfamoyl-2,2-dimethylpropyl)thio]imidazo[1,2-b]pyridazine] showed an inhibition in vivo at 30 mg/kg of 99%.
In the case of `NS(=O)(=O)CCCSc1ccc2nccn2n1` [Example 1, 6-(3-sulfamoylpropylthio)imidazo [1,2-b]pyridazine], the inhibition in vivo at 30 mg/kg is reported as 71%.
`CCC(COc1ccc2nccn2n1)CS(N)(=O)=O` (stereo not drawn) [Example 42] was tested, and the inhibition in vivo at 30 mg/kg was 55%.
Molecule `NS(=O)(=O)CCCOc1ccc2nccn2n1` [Example 41] has an inhibition in vivo at 30 mg/kg of 66%.

— US5155108A, “Imidazopyridazines and use as antiasthmatic agents” (Takeda Chemical Industries, Ltd., priority 1990, dated 1992)
